Values quoted from earlier work, collected in patent US6559138B1, “3-Desoxy-vitamin D3 analog esters” (Syntex (U.S.A.) LLC, priority 2001, dated 2003).

Experiments:
[1] = test system: women with postmenopausal osteoporosis
[2] = test system: steroid-induced bone loss; details: calcitriol 0.5 to 1.0 micrograms/day plus calcium 1000 mg/day, with or without intranasal calcitonin 400 IU/day

- hypercalcaemia ([1]; at recommended dosages): infrequent and mild
SMILES: C=C1/C(=C\C=C2/CCC[C@]3(C)[C@@H]([C@H](C)CCCC(C)(C)O)CC[C@@H]23)C[C@@H](O)C[C@@H]1O [calcitriol, 1,25-dihydroxyvitamin D3]
- lower rate of new vertebral fractures compared with patients receiving elemental calcium 1000 mg/day ([1]; calcitriol 0.25 microgram twice daily, after 3 years of treatment, patients with mild to moderate disease): 3 fold
- tolerability ([1]; overall): well tolerated
- effect on steroid-induced bone loss [2]: prevented steroid-induced bone loss
